Data reported in the METLIN SMRT retention time set (Domingo-Almenara et al. 2019).

Assay: gradient 5% acetonitrile 3 min, to 50% in 2 min, to 85% in 15 min, held 3 min, 100 µL/min
Conditions: column: Zorbax Extend-C18 2.1 x 50 mm; eluents: water / acetonitrile, 0.1% formic acid
How it was run: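 The mobile phases were water and acetonitrile, each with 0.1% formic acid, pumped at 100 μL/min through a Zorbax Extend-C18 column (2.1 × 50 mm, 1.8 μm). Pure standards were injected as mixtures of ~100 molecules and detected by a quadrupole time-of-flight mass spectrometer in positive and negative ionization mode. Retention time came from computationally picked adduct peaks, each inspected by hand.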

SMILES	RP-LC retention time [s]
CCN(C(=O)Cn1ncc2c(c1=O)N(C)C(=O)CS2)c1cccc(C)c1	756
CC(C)CCNC(=O)c1ccc2c(c1)CCCN2S(C)(=O)=O	846
O=C(Nc1ccc(Cl)cc1F)N1CCC(n2c(-c3ccco3)nc3cccnc32)C1 (centres undefined)	827
COc1ccc(-c2cc3c(=O)n(Cc4noc(CN5CCCCC5C)n4)ccn3n2)cc1 (centres undefined)	674
O=C(Cn1c2c(c(=O)n(C3CCCCC3)c1=O)CCC2)NCc1ccco1	764
CC(=O)c1cccc(NC(=O)N2CCc3c(c(COc4ccc(F)cc4)nn3C)C2)c1	801
Cc1cccc(S(=O)(=O)N2CCC(CN3CCCCCC3)CC2)c1	672
CCCn1cc(C(=O)NCc2ccccc2C)c(S(=O)(=O)N2CCC(C)CC2)n1	1110
O=C(Nc1ccc2c(c1)OCCO2)Nc1ccc2nc3n(c(=O)c2c1)CCC3	654
CC(=O)NS(=O)(=O)c1ccc(NC(=O)NC2CC(=O)N(c3ccc(C)cc3)C2)cc1 (centres undefined)	651
Cc1nc2cc3c(cc2n1CC(=O)NCc1ccc2c(c1)OCCCO2)OCCO3	615
CC(C)CN1C(=O)c2ccccc2C(C(=O)NCc2ccccn2)C1c1cccs1 (centres undefined)	632
CC(=O)N1CCC2(CC1)Oc1ccccc1C1CC(c3ccccc3)=NN12 (centres undefined)	953
CCc1cc(=O)n(CC(=O)NCc2ccc(F)c(Cl)c2)c(N2CCOCC2)n1	764
COc1ccc(-c2nnc(Cc3nc(-c4ccc(SC)cc4)no3)o2)cc1	1040
CCOC(=O)c1nc(N(CC)c2cc(C)ccc2C)c2ccccc2n1	1130
CCC(CC)C(=O)N1CCc2[nH]nc(C(=O)NCCCc3ccccc3)c2C1	797
FCCN(CCF)c1cccc(Cl)c1	1060
CCOC(=O)c1c(CN2CCOCC2)n(C)c2cc(-c3cccnc3)c3c(c12)CN(C)CO3	784
COc1cc(OC)cc(C(=O)N2CCC3(C2)C(=O)Nc2ccc(OC)cc23)c1 (centres undefined)	710
COCC(=O)NC1CCC12CCN(C(=O)c1cccs1)CC2 (centres undefined)	669

SMILES	RP-LC retention time [s]
Cc1ccc(C2Cn3cnc(C(=O)N4CCC(C(=O)NC5CCCC5)CC4)c3CO2)cc1 (centres undefined)	749
COCCNC(=O)NCc1ccc2c(c1)N(C(=O)c1ccccc1)CC2	696
Cc1ccc(CNC(=O)NCCCn2c(-c3ccncc3)nc3cccnc32)cc1	651
CC(=O)/C=C1\SC(CC(=O)O)C(=O)N1c1ccccc1 (centres undefined)	631
CCOC(=O)C1=C(CN(C)Cc2ccccc2)NC(=O)NC1c1ccc(F)cc1 (centres undefined)	663
Cc1cccn2c(Nc3ccccc3)c(-c3ccc(N4CCOCC4)cc3)nc12	684
O=c1c2cnc3ncnn3c2ccn1C1CC1	583
CCCOc1nc2ccccc2nc1N1CCCC(C(=O)Nc2ccccc2OC)C1 (centres undefined)	1320
CCOC(=O)N1CCN(C(=O)C2CCC(=O)N(c3ccc(OC)cc3)C2c2ccc(F)cc2)CC1 (centres undefined)	726
Cc1ccc2c(c1)C(=O)NC1(CCN(C(=O)NCCc3ccccc3)CC1)N2C	755
CCc1ccc(-c2csc(Nc3ccccn3)n2)cc1	1040
CN(Cc1nc2ccccc2n1CC(=O)N(C)c1ccccc1)C(=O)c1ccco1	694
Fc1ccc(-c2csc(Nc3cccnc3)n2)cc1	669
O=C(Cn1c(=O)cc(-c2nc(C3CC3)no2)c2ccccc21)NCc1ccc2c(c1)OCO2	906
O=C(c1ccn[nH]1)N1CCCC(Cn2c(C3CC3)nc3cccnc32)C1 (centres undefined)	578
O=C(CN1CCN(Cc2cccc(Cl)c2)C1=O)NCc1ccc(N2CCCC2)cc1	854
Cc1[nH]c(C(=O)N2CCCC(C(=O)NCCCN3CCCCCC3)C2)c(C)c1C(=O)OC(C)C (centres undefined)	650
O=c1[nH]cc(I)cc1I	723
Cn1c(C2CCN(C(=O)c3cccc(Cl)c3)C2)nc2cccnc21 (centres undefined)	688
CC1=C(c2ccc(C)c(C)c2)S(=O)(=O)N=C1N1CCC(NC(=O)CCC(C)C)CC1	962
O=C(NCc1cccnc1)C1CC(=O)N(CCc2c[nH]c3ccc(Cl)cc23)C1 (centres undefined)	613

Further lines, results first:

RP-LC retention time [s]	SMILES
873	Cc1sc(NC(=O)COc2ccc(Cl)cc2)nc1-c1ccc2c(c1)NC(=O)CO2
881	COc1ccc(C2CC(=O)N(c3cccc(Cl)c3)C(=O)C2)cc1OC
835	Cc1ccc(Cl)cc1NC(=O)N1CCC(n2c(-c3ccco3)nc3cccnc32)C1 (centres undefined)
1250	COc1ccc(-c2noc(Cc3nc(-c4ccc(C)cc4)cs3)n2)cc1
800	COc1ccc(-n2nc(N3CCN(C(=O)CC4CCCC4)CC3)ccc2=O)cc1
872	O=C(Cn1ccc2ccn(Cc3ccccc3)c2c1=O)NCc1cccs1
741	COc1cc(CN2C[C@@H]3C(=O)N(Cc4ccc5c(c4)OCO5)C(=O)[C@@H]3C2)cc(OC)c1
660	COC(=O)c1c(-c2ccc(Cl)cc2)noc1NCCN1CCOCC1
1020	CC(C)c1noc(-c2ccc(-n3cnc(C(=O)NC(C)c4ccc(F)cc4)c3)nc2)n1 (centres undefined)
723	O=C(c1ccc(OCC2CCCN2C(=O)c2ccc(F)cc2F)cc1)N1CCOCC1 (centres undefined)
1090	CCc1ccccc1S(=O)(=O)N1CC=C(c2cn(C)c3ncccc23)CC1
715	Cc1cccc(NC(=O)CSc2nnc(C)s2)c1
624	CCCc1cc(N2CCN(C(=O)c3ccc4c(c3)OCO4)CC2)nc2nnc(C)n12
1340	CC(C)n1c(=O)oc2cc(-c3noc(-c4cccc(Br)c4)n3)ccc21
841	Cc1ccc(NS(=O)(=O)c2cc3n(c2)CCN(CC(C)C)C3=O)c(C)c1
840	CCn1nccc1C(=O)N1CCCC1c1ccccc1F (centres undefined)
815	O=C(Nc1nccs1)c1csc(Nc2ccccc2)n1
779	Cc1noc2nc(C)n(CC(=O)Nc3ccccc3C(F)(F)F)c(=O)c12
706	CCOC(=O)c1[nH]c(C)c(CCC(=O)N2CCC(C(=O)NCCCOC(C)C)CC2)c1C
934	Cc1c(Cl)cccc1S(=O)(=O)NCC1CCN(C(=O)c2cc3ccccc3o2)CC1
782	O=C1CC(/C=C/c2ccccc2)Cc2nc(N3CCN(Cc4ccc5c(c4)OCO5)CC3)ncc21 (centres undefined)
711	Cc1nn(CC(=O)NC2CC2)c(=O)c2nc(-c3ccccc3)sc12
748	COC(=O)c1ccccc1S(=O)(=O)Nc1ccc2c(c1)CCC(=O)N2C
983	Cc1cccc(NC(=O)Cc2csc3nc(-c4cccc(Br)c4)cn23)c1C

RP-LC retention time [s]	SMILES
846	Cc1ccccc1Cn1nc2c(S(=O)(=O)N3CCCC3)cccn2c1=O
578	O=C(c1cc2ccccc2o1)N1CCN(Cc2ccsc2)CC1
805	Cn1c(=O)n([C@H]2CCN(S(=O)(=O)c3ccc(F)cc3)C2)c2ncccc21
950	Cc1ccccc1CNC(=O)Cn1cccc1-c1nnc(-c2ccccc2)o1
583	O=C(Cn1cnc(-c2cccs2)cc1=O)NCCOc1ccc(-c2ccco2)nn1
661	CCC1CCCCN1C(=O)c1cnc2nc(C)ccc2c1Nc1ccccc1OC (centres undefined)
847	CCOC(=O)N1CCN(Cc2nc(-c3ccc(N4CCC(C)CC4)nc3)no2)CC1
708	COc1ccc(-c2c(C)noc2NC(C)=O)cc1S(=O)(=O)Nc1cccc(C#N)c1
955	COc1cc(NC(=O)Nc2nccn(-c3ccc(C)c(C)c3)c2=O)cc(OC)c1
689	Cc1nnc2c(NS(=O)(=O)c3ccccc3C(F)(F)F)cccn12
632	Cc1c(CCC(=O)NCc2cccnc2)c(=O)n2nc(-c3ccc(Cl)cc3)nc2n1C
957	CC1CCN(C(=O)c2ccc(OCC3CCN(C(=O)c4ccc(C#N)cc4)CC3)cc2)CC1
700	CCC(C)C(NC(=O)c1ccc(OC)cc1)C(=O)Nc1nc2ccccc2[nH]1 (centres undefined)
863	CCS(=O)(=O)Nc1ccc(C2(C(=O)NCc3ccc(C)cc3)CCC2)cc1
941	COc1cccc(N2CCN(c3ccnc(SCC(=O)Nc4ccc(Cl)cc4F)n3)CC2)c1
931	Cc1noc2ncnc(N3CCCC(C(=O)N4CCN(c5ccc(Cl)cc5)CC4)C3)c12 (centres undefined)
770	COc1cccc(C(=O)N2CCN(S(=O)(=O)c3cc4c5c(c3)CCC(=O)N5CCC4)CC2)c1
1040	O=C(COc1ccc(Br)cc1)Nc1cncc(-c2nc3ccccc3o2)c1
849	Cc1noc(/C=C\c2ccc(S(=O)(=O)N3CCN(c4ncccn4)CC3)cc2)c1NC(=O)C1CC1
817	COc1ccc(-c2cc(N3CCC(NC(=O)C4(c5ccccc5)CC4)CC3)n[nH]2)cc1
1040	CC1CN(c2nc(Nc3ccc(Cl)cc3)c3cnn(C)c3n2)CC(C)O1 (centres undefined)
751	Cc1ccc(-c2cc(C(=O)NCCCN3CCc4ccccc4C3)c(C)[nH]2)cc1C
609	CC(C)n1ccc(-c2nnc(NC(=O)C3CCCN(S(C)(=O)=O)C3)o2)n1 (centres undefined)
